In BindingDB's records for doi:10.1021/jm970166j (Roche Bioscience, 1997):

Experiments:
D(2) dopamine receptor = D(2) dopamine receptor (Homo sapiens, UniProt P14416); experiment: The compound's binding affinity against Dopamine receptor D2
[1] = molecular target: T1, 5-hydroxytryptamine receptor 1A (Mus musculus, UniProt Q64264); experiment: The compound's binding affinity against 5-hydroxytryptamine 1A receptor
T1 sequence (Q64264 whole entry): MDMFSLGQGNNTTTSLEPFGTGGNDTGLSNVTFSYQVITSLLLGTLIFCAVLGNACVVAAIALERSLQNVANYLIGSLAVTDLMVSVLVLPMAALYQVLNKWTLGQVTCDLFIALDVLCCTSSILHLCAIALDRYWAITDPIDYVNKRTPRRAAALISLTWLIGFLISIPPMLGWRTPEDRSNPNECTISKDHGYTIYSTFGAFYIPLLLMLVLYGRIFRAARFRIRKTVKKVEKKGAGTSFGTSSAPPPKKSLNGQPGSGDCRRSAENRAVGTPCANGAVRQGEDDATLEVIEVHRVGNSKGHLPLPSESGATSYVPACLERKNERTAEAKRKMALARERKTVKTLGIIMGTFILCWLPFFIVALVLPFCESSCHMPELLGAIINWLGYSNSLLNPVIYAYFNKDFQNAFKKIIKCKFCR

[2] = molecular target: T2, Alpha-2B adrenergic receptor (Rattus norvegicus, UniProt P19328); experiment: The compound's binding affinity against Alpha-2B adrenergic receptor from rat kidney homogenate in the presence of phentolamine
T2 sequence (P19328 whole entry): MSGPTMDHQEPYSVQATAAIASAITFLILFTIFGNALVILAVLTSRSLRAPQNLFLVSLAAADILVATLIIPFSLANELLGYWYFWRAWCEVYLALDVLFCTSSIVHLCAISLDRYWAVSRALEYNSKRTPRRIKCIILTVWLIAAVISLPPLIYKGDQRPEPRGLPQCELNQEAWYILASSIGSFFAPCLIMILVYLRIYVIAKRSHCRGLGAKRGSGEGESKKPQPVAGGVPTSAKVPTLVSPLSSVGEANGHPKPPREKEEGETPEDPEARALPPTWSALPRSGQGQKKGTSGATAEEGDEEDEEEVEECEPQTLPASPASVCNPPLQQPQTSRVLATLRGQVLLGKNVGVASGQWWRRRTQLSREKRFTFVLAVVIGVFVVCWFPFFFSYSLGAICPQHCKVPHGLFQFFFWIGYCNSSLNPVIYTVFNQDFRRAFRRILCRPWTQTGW

D(2) dopamine receptor, sequence (P14416 whole entry): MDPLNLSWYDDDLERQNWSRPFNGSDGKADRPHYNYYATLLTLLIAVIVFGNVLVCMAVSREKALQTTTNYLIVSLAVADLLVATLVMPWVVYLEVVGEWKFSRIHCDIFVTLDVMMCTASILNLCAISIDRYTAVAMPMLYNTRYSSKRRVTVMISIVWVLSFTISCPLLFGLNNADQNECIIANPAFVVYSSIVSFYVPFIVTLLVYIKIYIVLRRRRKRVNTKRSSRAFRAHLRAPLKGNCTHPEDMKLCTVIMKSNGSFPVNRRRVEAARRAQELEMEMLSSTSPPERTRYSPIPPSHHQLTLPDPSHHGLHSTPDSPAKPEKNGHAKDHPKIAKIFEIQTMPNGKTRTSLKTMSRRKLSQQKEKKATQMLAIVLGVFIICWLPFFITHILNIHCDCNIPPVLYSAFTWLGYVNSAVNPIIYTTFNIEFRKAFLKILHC

For `COc1cc(F)ccc1N1CCN(CCCNc2c(C(=O)N(C)C)cnc3c2c(C)nn3C)CC1`, the pKi (D(2) dopamine receptor) was 6.4 and the pKi [1] was 6.5.

`Cc1nn(C)c2ncc(C(=O)N(C)C)c(NCCCN3CCN(c4ccccc4OCC(F)(F)F)CC3)c12` was tested, and the pKi [2] was 8.6, the pKi (D(2) dopamine receptor) was 8.1 and the pKi [1] was 7.5.

`COc1ccccc1N1CCN(CCCNc2ncccc2C(=O)N(C)C)CC1` gave a pKi (D(2) dopamine receptor) of 7.4 and a pKi [1] of 7.6.

`COc1cc(F)ccc1N1CCN(CCCNc2ncccc2C(=O)N(C)C)CC1` was tested, and the pKi [2] was 6.5, the pKi (D(2) dopamine receptor) was 6.7 and the pKi [1] was 6.7.
